{
  "source": "ChEMBL document CHEMBL4706515",
  "about": "“Discovery of new [1,2,4] Triazolo[1,5-a]Pyrimidine derivatives that Kill gastric cancer cells via the mitochondria pathway” (Eur J Med Chem, 2020)",
  "key": {"[1]": {"system": "MGC-803", "assay": "Induction of apoptosis in human MGC-803 cells assessed as necrotic cells at 10 uM measure after 24 hrs by Annexin-PI staining based Flowcytometry method (reference value: 3.13%)", "format": "functional"}, "[2]": {"system": "MGC-803", "assay": "Antiproliferative activity in human MGC-803 cells assessed as inhibition of cell viability preincubated with 3-methyladenine followed by compound addition measured after 24 hrs by SRB staining method", "format": "functional, cell-based"}, "[3]": {"system": "SGC-7901", "assay": "Induction of apoptosis in human SGC-7901 cells assessed as viable cells at 10 uM measure after 24 hrs by Annexin-PI staining based Flowcytometry method (reference value: 94.9%)", "format": "functional", "conditions": "read-out: Activity"}, "[4]": {"system": "MGC-803", "assay": "Induction of apoptosis in human MGC-803 cells assessed as accumulation of cleaved caspase 3 protein at 0.625 to 10 uM measured after 24 hrs by western blot assay", "format": "functional, cell-based", "conditions": "dose 0.625-10 µM"}, "[5]": {"system": "MGC-803", "assay": "Induction of apoptosis in human MGC-803 cells assessed as viable cells at 1.25 uM measure after 24 hrs by Annexin-PI staining based Flowcytometry method (reference value: 80%)", "format": "functional", "conditions": "read-out: Activity"}, "[6]": {"system": "SGC-7901", "assay": "Induction of apoptosis in human SGC-7901 cells assessed as late apoptotic cells at 2.5 uM measure after 24 hrs by Annexin-PI staining based Flowcytometry method (reference value: 1.29%)", "format": "functional"}, "[7]": {"system": "MGC-803", "assay": "Antiproliferative activity against human MGC-803 cells assessed as inhibition of cell growth incubated with compound for 1 to 24 hrs and measured 72 hrs after replacement of media by SRB assay", "format": "functional, cell-based", "conditions": "time 1-24 hrs"}, "[8]": {"system": "SGC-7901", "assay": "Antiproliferative activity against human SGC-7901 cells assessed as inhibition of cell growth at measured after 72 hrs by SRB assay", "format": "functional"}, "[9]": {"system": "SGC-7901", "assay": "Induction of apoptosis in human SGC-7901 cells assessed as late apoptotic cells at 1.25 uM measure after 24 hrs by Annexin-PI staining based Flowcytometry method (reference value: 1.29%)", "format": "functional"}, "[10]": {"system": "MGC-803", "assay": "Antiproliferative activity against human MGC-803 cells assessed as inhibition of cell growth at 10 uM measured after 72 hrs by SRB assay relative to control", "format": "functional"}},
  "note": "Active and inactive are the calls of the source. The calls are words filed in the database; no cut-off is given here.",
  "data": [
    {"compound": "Cc1cc(Nc2ccc(C(=O)/C=C/c3cccc(Br)n3)cc2)n2nc(SCc3nc4ccccc4[nH]3)nc2n1", "values": [
      {"measurement": "Activity", "setting": "[1]", "result": 8.84, "unit": "%"},
      {"measurement": "inhibition", "setting": "[2]", "result": "Active"},
      {"measurement": "viability at 10 µM", "setting": "[3]", "result": 23.9, "unit": "%"},
      {"measurement": "Activity", "setting": "[4]", "result": "Active"},
      {"measurement": "viability at 1.25 µM", "setting": "[5]", "result": 88.6, "unit": "%"},
      {"measurement": "Activity", "setting": "[6]", "result": 5.53, "unit": "%"},
      {"measurement": "inhibition", "setting": "[7]", "result": "Active"},
      {"measurement": "GI50", "setting": "[8]", "result": 640, "unit": "nM"},
      {"measurement": "Activity", "setting": "[9]", "result": 1.37, "unit": "%"},
      {"measurement": "inhibition at 10 µM", "setting": "[10]", "result": 94.4, "unit": "%"}
    ]}
  ]
}
